# In PubChem BioAssay (NCI):
#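 Results reflect a 48-hour exposure of cells in 96-well plates to compound at five concentrations. At the TGI there is no net growth.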
# Experiments:
# Assay in all cases: NCI tumour cell line growth inhibition, 48 h
# [1] = system: UO-31 renal
# [2] = system: NCI-H23 lung
# [3] = system: KM12 colon
# [4] = system: RPMI-8226 leukemia
# [5] = system: U251 CNS
# [6] = system: IGROV1 ovarian
# [7] = system: SR leukemia
# [8] = system: HL-60(TB) leukemia
# [9] = system: HT29 colon
# [10] = system: M14 melanoma
# [11] = system: HOP-62 NSCLC
# [12] = system: OVCAR-5 ovarian
# [13] = system: M19-MEL melanoma
# [14] = system: HOP-92 NSCLC
# [15] = system: SK-MEL-2 melanoma
# [16] = system: HCT-15 colon
# [17] = system: NCI-H226 lung
# [18] = system: SW-620 colon
# [19] = system: SF-295 CNS
# [20] = system: HCC-2998 colon
# [21] = system: COLO 205 colon
# [22] = system: SNB-78 CNS
# [23] = system: UACC-257 melanoma
# [24] = system: DMS 114 small cell lung
# [25] = system: CCRF-CEM leukemia
# [26] = system: NCI-H460 lung
# [27] = system: OVCAR-8 ovarian
# [28] = system: 786-0 renal
# [29] = system: RXF 393 renal
# [30] = system: SK-MEL-28 melanoma
# [31] = system: SK-MEL-5 melanoma
# [32] = system: UACC-62 melanoma
# [33] = system: LXFL 529 NSCLC
# [34] = system: DLD-1 colon
# [35] = system: SK-OV-3 ovarian
# [36] = system: SN12C renal
# [37] = system: SNB-75 CNS
# [38] = system: A549 NSCLC
# [39] = system: HOP-18 NSCLC
# [40] = system: HCT-116 colon
# [41] = system: DMS 273 small cell lung
# [42] = system: KM20L2 colon
# [43] = system: ACHN renal
# [44] = system: OVCAR-4 ovarian
# [45] = system: MOLT-4 leukemia
# [46] = system: SF-268 CNS
# [47] = system: K-562 leukemia
# [48] = system: EKVX NSCLC
# [49] = system: SNB-19 CNS
# [50] = system: MALME-3M melanoma
# [51] = system: SF-539 CNS
# [52] = system: NCI-H522 lung
# [53] = system: CAKI-1 renal
# [54] = system: TK-10 renal
# [55] = system: A498 renal
# [56] = system: LOX IMVI melanoma
# [57] = system: OVCAR-3 ovarian
compound,measurement,setting,value
N/N=c1\c2ccccc2c2ccc3c4ccccc4/c(=N\N)c3c12,TGI,[1],> 100 µM
same,TGI,[2],> 100 µM
same,TGI,[3],> 100 µM
same,TGI,[4],> 100 µM
same,TGI,[5],> 100 µM
same,TGI,[6],> 100 µM
same,TGI,[7],> 100 µM
same,TGI,[8],> 100 µM
same,TGI,[9],> 100 µM
same,TGI,[10],> 100 µM
same,TGI,[11],> 100 µM
same,TGI,[12],> 100 µM
same,TGI,[13],> 100 µM
same,TGI,[14],> 100 µM
same,TGI,[15],> 100 µM
same,TGI,[16],> 100 µM
same,TGI,[17],> 100 µM
same,TGI,[18],> 100 µM
same,TGI,[19],> 100 µM
same,TGI,[20],> 100 µM
same,TGI,[21],> 100 µM
same,TGI,[22],> 100 µM
same,TGI,[23],> 100 µM
same,TGI,[24],> 100 µM
same,TGI,[25],> 100 µM
same,TGI,[26],> 100 µM
same,TGI,[27],> 100 µM
same,TGI,[28],> 100 µM
same,TGI,[29],> 100 µM
same,TGI,[30],> 100 µM
same,TGI,[31],> 100 µM
same,TGI,[32],> 100 µM
same,TGI,[33],> 100 µM
same,TGI,[34],> 100 µM
same,TGI,[35],> 100 µM
same,TGI,[36],> 100 µM
same,TGI,[37],> 100 µM
same,TGI,[38],> 100 µM
same,TGI,[39],> 100 µM
same,TGI,[40],> 100 µM
same,TGI,[41],> 100 µM
same,TGI,[42],> 100 µM
same,TGI,[43],> 100 µM
same,TGI,[44],> 100 µM
same,TGI,[45],> 100 µM
same,TGI,[46],> 100 µM
same,TGI,[47],> 100 µM
same,TGI,[48],> 100 µM
same,TGI,[49],> 100 µM
same,TGI,[50],> 100 µM
same,TGI,[51],> 100 µM
same,TGI,[52],> 100 µM
CCOC(=O)C1=C(C)N2CCOC2(C)C(C(=O)OC)C1c1cccc(Cl)c1 (configuration not stated),TGI,[1],> 100 µM
same,TGI,[2],> 100 µM
same,TGI,[53],> 100 µM
same,TGI,[3],> 100 µM
same,TGI,[4],> 100 µM
same,TGI,[5],> 100 µM
same,TGI,[6],> 100 µM
same,TGI,[7],> 100 µM
same,TGI,[8],> 100 µM
same,TGI,[9],> 100 µM
same,TGI,[54],> 100 µM
same,TGI,[10],> 100 µM
same,TGI,[11],> 100 µM
same,TGI,[12],> 100 µM
same,TGI,[13],> 100 µM
same,TGI,[14],> 100 µM
same,TGI,[15],> 100 µM
same,TGI,[16],> 100 µM
same,TGI,[55],> 100 µM
same,TGI,[18],> 100 µM
same,TGI,[19],> 100 µM
same,TGI,[20],> 100 µM
same,TGI,[21],> 100 µM
same,TGI,[22],> 100 µM
same,TGI,[23],> 100 µM
same,TGI,[24],> 100 µM
same,TGI,[25],> 100 µM
same,TGI,[26],> 100 µM
same,TGI,[27],> 100 µM
same,TGI,[28],> 100 µM
same,TGI,[56],> 100 µM
same,TGI,[30],> 100 µM
same,TGI,[31],> 100 µM
same,TGI,[32],> 100 µM
same,TGI,[33],> 100 µM
same,TGI,[34],> 100 µM
same,TGI,[35],> 100 µM
same,TGI,[36],> 100 µM
same,TGI,[37],> 100 µM
same,TGI,[38],> 100 µM
same,TGI,[39],> 100 µM
same,TGI,[40],> 100 µM
same,TGI,[41],> 100 µM
same,TGI,[42],> 100 µM
same,TGI,[43],> 100 µM
same,TGI,[57],> 100 µM
same,TGI,[46],> 100 µM
same,TGI,[47],> 100 µM
same,TGI,[48],> 100 µM
same,TGI,[49],> 100 µM
same,TGI,[50],> 100 µM
same,TGI,[51],> 100 µM
same,TGI,[52],> 100 µM
CCN(CC)c1c(C(=O)/C=C/c2ccc(F)cc2)c(-c2ccccc2)nn(C)c1=O,TGI,[1],24.4 µM
same,TGI,[2],16.5 µM
same,TGI,[53],69.6 µM
same,TGI,[3],18.9 µM
same,TGI,[4],9.89 µM
same,TGI,[5],19.1 µM
same,TGI,[6],21.9 µM
same,TGI,[8],15.7 µM
same,TGI,[9],18.6 µM
same,TGI,[54],38.5 µM
same,TGI,[10],25.6 µM
same,TGI,[11],28.6 µM
same,TGI,[12],41.9 µM
same,TGI,[13],25.1 µM
same,TGI,[14],19.4 µM
same,TGI,[15],16.7 µM
same,TGI,[16],25.7 µM
same,TGI,[17],34 µM
same,TGI,[55],21.1 µM
same,TGI,[18],34.8 µM
same,TGI,[19],34 µM
same,TGI,[20],10.5 µM
same,TGI,[21],14.8 µM
same,TGI,[22],44.9 µM
same,TGI,[23],21.2 µM
same,TGI,[24],19.2 µM
same,TGI,[25],6.82 µM
same,TGI,[26],18.8 µM
same,TGI,[27],19.1 µM
same,TGI,[28],23.2 µM
same,TGI,[29],11 µM
same,TGI,[56],23.6 µM
same,TGI,[30],31.5 µM
same,TGI,[31],21.1 µM
same,TGI,[32],33.1 µM
same,TGI,[33],19.9 µM
same,TGI,[34],26.7 µM
same,TGI,[35],60.8 µM
same,TGI,[36],21.8 µM
same,TGI,[37],22.5 µM
same,TGI,[38],43.2 µM
same,TGI,[39],58.4 µM
same,TGI,[40],14.5 µM
same,TGI,[41],21 µM
same,TGI,[42],44.4 µM
same,TGI,[43],20.6 µM
same,TGI,[44],20.5 µM
same,TGI,[57],21.2 µM
same,TGI,[45],5.91 µM
same,TGI,[46],35.8 µM
same,TGI,[47],34.1 µM
same,TGI,[48],55.3 µM
same,TGI,[49],58.4 µM
same,TGI,[50],27.8 µM
same,TGI,[52],13.9 µM
CCCCCCCC/C=C/CCCCCCCC(=O)N(O)C1CC(n2cc(C)c(=O)[nH]c2=O)OC1CO (configuration not stated),TGI,[1],14.4 µM
same,TGI,[2],23.2 µM
same,TGI,[53],21.6 µM
same,TGI,[3],23.3 µM
same,TGI,[4],50.1 µM
same,TGI,[5],17 µM
same,TGI,[6],17.6 µM
same,TGI,[7],20.5 µM
same,TGI,[9],22.4 µM
same,TGI,[54],22.7 µM
same,TGI,[10],10.1 µM
same,TGI,[11],18.1 µM
same,TGI,[12],22.3 µM
same,TGI,[13],17.7 µM
same,TGI,[14],28.7 µM
same,TGI,[15],26.9 µM
same,TGI,[16],16.2 µM
same,TGI,[55],32.2 µM
same,TGI,[18],23.8 µM
same,TGI,[19],21.4 µM
same,TGI,[20],22.4 µM
same,TGI,[21],16.7 µM
same,TGI,[22],45.8 µM
same,TGI,[23],26.7 µM
same,TGI,[24],10.9 µM
same,TGI,[25],20.4 µM
same,TGI,[26],13.6 µM
same,TGI,[27],24.9 µM
same,TGI,[28],16 µM
same,TGI,[29],16.2 µM
same,TGI,[56],17.3 µM
same,TGI,[30],19.4 µM
same,TGI,[31],19.5 µM
same,TGI,[32],11 µM
same,TGI,[33],22.4 µM
same,TGI,[34],18.4 µM
same,TGI,[35],21.9 µM
same,TGI,[36],22.8 µM
same,TGI,[37],29.8 µM
same,TGI,[38],33.9 µM
same,TGI,[39],13.9 µM
same,TGI,[40],20.6 µM
same,TGI,[41],16.1 µM
same,TGI,[42],16.4 µM
same,TGI,[43],18 µM
same,TGI,[44],25 µM
same,TGI,[57],20.1 µM
same,TGI,[45],19.6 µM
same,TGI,[46],26.3 µM
same,TGI,[47],21 µM
same,TGI,[49],25.5 µM
same,TGI,[50],22 µM
same,TGI,[51],24.2 µM
same,TGI,[52],20.2 µM
CC(C)C(NCc1c2ccccc2[n+]([O-])c2ccccc12)C(=O)O (configuration not stated),TGI,[1],> 100 µM
same,TGI,[2],> 100 µM
same,TGI,[53],> 100 µM
same,TGI,[3],> 100 µM
same,TGI,[4],86.5 µM
same,TGI,[5],> 100 µM
same,TGI,[6],> 100 µM
same,TGI,[8],76 µM
same,TGI,[9],> 100 µM
same,TGI,[54],> 100 µM
same,TGI,[10],> 100 µM
same,TGI,[11],> 100 µM
same,TGI,[12],> 100 µM
same,TGI,[14],53.2 µM
same,TGI,[15],> 100 µM
same,TGI,[16],> 100 µM
same,TGI,[17],> 100 µM
same,TGI,[55],> 100 µM
same,TGI,[18],> 100 µM
same,TGI,[19],> 100 µM
same,TGI,[20],> 100 µM
same,TGI,[21],> 100 µM
same,TGI,[22],> 100 µM
same,TGI,[23],> 100 µM
same,TGI,[24],> 100 µM
same,TGI,[25],> 100 µM
same,TGI,[26],> 100 µM
same,TGI,[27],> 100 µM
same,TGI,[28],> 100 µM
same,TGI,[56],> 100 µM
same,TGI,[30],> 100 µM
same,TGI,[31],> 100 µM
same,TGI,[32],> 100 µM
same,TGI,[33],> 100 µM
same,TGI,[34],> 100 µM
same,TGI,[35],> 100 µM
same,TGI,[36],> 100 µM
same,TGI,[37],> 100 µM
same,TGI,[38],> 100 µM
same,TGI,[39],> 100 µM
same,TGI,[40],> 100 µM
same,TGI,[41],> 100 µM
same,TGI,[42],> 100 µM
same,TGI,[43],> 100 µM
same,TGI,[44],> 100 µM
same,TGI,[57],> 100 µM
same,TGI,[45],> 100 µM
same,TGI,[46],> 100 µM
same,TGI,[47],> 100 µM
same,TGI,[48],> 100 µM
same,TGI,[49],> 100 µM
same,TGI,[50],> 100 µM
same,TGI,[52],> 100 µM
